Among the data in US10364245B2 (CHIESI FARMACEUTICI S.p.A., priority 2017, dated 2019) are IC50 values, retold here.

Experiment [1] deals with Peripheral Blood Mononuclear Cells (PBMCs), TNFα release. Put plainly: LPS-stimulated PBMC TNFα release assay. Type of experiment: cell-based. The conditions noted are these: human PBMC, LPS (10 ng/ml), 18 h, compound 1 h before LPS; read-out: LPS-stimulated PBMC TNFα release inhibition. Summed up:
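TNFα in cell-free supernatant, read on MSD plates, gave % inhibition curves and IC50 (≥3 separate experiments). Healthy-donor PBMCs had 1 h compound exposure at 37 °C in 1% FBS medium, then 18 h stimulation with 10 ng/ml LPS, after a 3 h serum-free rest.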

For another experiment, the target named is T1, p38 alpha (Homo sapiens, UniProt Q16539).
T1 construct: purchased Invitrogen PV3304
Put plainly: P38 alpha enzyme inhibition assay (Alphascreen kinase activity assay). The conditions noted are these: 100 pM p38 alpha, 2 hours preincubation at 25° C., 250 μM ATP, ATF-2 fusion protein; read-out: p38α inhibition. The class given is biochemical. A digest of the protocol: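 Phosphorylation of ATF-2 fusion protein (0.3 μg/ml) read by AlphaScreen with anti-phospho-ATF2 antibody after 1 h kinase reaction at 25 °C, initiated by 250 μM ATP. Compounds first incubated 2 h at 25 °C with 100 pM p38 alpha in pH 7.5 HEPES buffer, 1% DMSO. IC50 derived from concentration-response data.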

Counter-ions that a name gives are not always drawn.

T1 sequence (Q16539 whole entry): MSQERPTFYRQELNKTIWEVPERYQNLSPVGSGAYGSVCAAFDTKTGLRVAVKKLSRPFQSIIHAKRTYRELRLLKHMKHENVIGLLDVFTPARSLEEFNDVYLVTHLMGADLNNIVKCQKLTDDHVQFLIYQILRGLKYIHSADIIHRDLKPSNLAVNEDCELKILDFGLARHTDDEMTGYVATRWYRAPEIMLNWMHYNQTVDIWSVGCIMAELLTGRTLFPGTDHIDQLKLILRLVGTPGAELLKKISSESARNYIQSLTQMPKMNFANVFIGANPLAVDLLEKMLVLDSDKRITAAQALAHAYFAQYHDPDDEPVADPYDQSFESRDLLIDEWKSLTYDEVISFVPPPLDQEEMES

With `COCC(C)(C)c1nnc2ccc(O[C@@H]3CC[C@H](NC(=O)Nc4cc(C(C)(C)C)nc(C(=O)NCC5(N(C)C)CCCC5)n4)c4ccccc43)cn12` [Example 154, 4-(tert-butyl)-N-((1-(dimethylamino)cyclopentyl)methyl)-6-(3-((1S,4R)-4-((3-(1-methoxy-2-methylpropan-2-yl)-[1,2,4]triazolo[4,3-a]pyridin-6-yl)oxy)-1,2,3,4-tetrahydronaphthalen-1-yl)ureido)pyrimidine-2-carboxamide], the IC50 is more than 5 nM in experiment [1] and less than 1 nM on p38 alpha.
For `COCC(C)(C)c1nnc2ccc(O[C@@H]3CC[C@H](NC(=O)Nc4cc(C(C)(C)C)nc(C(=O)NCC(C)(C)N5CCN(C)CC5)n4)c4ccccc43)cn12` [Example 155, 4-(tert-butyl)-6-(3-((1S,4R)-4-((3-(1-methoxy-2-methylpropan-2-yl)-[1,2,4]triazolo[4,3-a]pyridin-6-yl)oxy)-1,2,3,4-tetrahydronaphthalen-1-yl)ureido)-N-(2-methyl-2-(4-methylpiperazin-1-yl)propyl)pyrimidine-2-carboxamide], in that order: more than 5 nM and less than 1 nM.
For `COCC(C)(C)c1nnc2ccc(O[C@@H]3CC[C@H](NC(=O)Nc4cc(C(C)(C)C)nc(C(=O)NCC5(N(C)C)CCC5)n4)c4ccccc43)cn12` [Example 158, 4-(tert-Butyl)-N-((1-(dimethylamino)-cyclobutyl)methyl)-6-(3-((1S,4R)-4-((3-(1-methoxy-2-methylpropan-2-yl)-[1,2,4]triazolo[4,3-a]pyridin-6-yl)oxy)-1,2,3,4-tetrahydronaphthalen-1-yl)ureido)pyrimidine-2-carboxamide formate salt], in that order: 1 to 5 nM and less than 1 nM.
As for `CN(C)C1(CNC(=O)c2nc(NC(=O)N[C@H]3CC[C@@H](Oc4ccc5nnc(C(C)(C)C)n5c4)c4ccccc43)cc(C(C)(C)C)n2)CC1` [Example 159, 4-(tert-butyl)-6-(3-((1S,4R)-4-((3-(tert-butyl)-[1,2,4]triazolo[4,3-a]pyridin-6-yl)oxy)-1,2,3,4-tetrahydronaphthalen-1-yl)ureido)-N-((1-(dimethylamino)-cyclopropyl)methyl)-pyrimidine-2-carboxamide], the IC50 in experiment [1] was more than 5 nM; at p38 alpha, 1 to 10 nM.
For `COCC(C)(C)c1nnc2ccc(O[C@@H]3CC[C@H](NC(=O)Nc4cc(C(C)(C)C)nc(C(=O)NCCN5CC(OC)C5)n4)c4ccccc43)cn12` [Example 166, 4-(tert-butyl)-6-(3-((1S,4R)-4-((3-(1-methoxy-2-methylpropan-2-yl)-[1,2,4]triazolo[4,3-a]pyridin-6-yl)oxy)-1,2,3,4-tetrahydronaphthalen-1-yl)ureido)-N-(2-(3-methoxyazetidin-1-yl)ethyl)pyrimidine-2-], in that order: more than 5 nM and less than 1 nM.
The corresponding values for `CC[C@H](C)c1nnc2ccc(O[C@@H]3CC[C@H](NC(=O)Nc4cc(C(C)(C)C)nc(C(=O)NCCN5CC(OC)C5)n4)c4ccccc43)cn12` [Example 169, 4-(tert-butyl)-6-(3-((1S,4R)-4-((3-((S)-sec-butyl)-[1,2,4]triazolo[4,3-a]pyridin-6-yl)oxy)-1,2,3,4-tetrahydronaphthalen-1-yl)ureido)-N-(2-(3-methoxyazetidin-1-yl)ethyl)pyrimidine-2-carboxamide] are 1 to 5 nM and less than 1 nM.
The corresponding values for `COCC(C)(C)c1nnc2ccc(O[C@@H]3CC[C@H](NC(=O)Nc4cc(C(C)(C)C)nc(C(=O)NCC(C)(C)N5CC(OC)C5)n4)c4ccccc43)cn12` [Example 171, 4-(tert-butyl)-6-(3-((1S,4R)-4-((3-(1-methoxy-2-methylpropan-2-yl)-[1,2,4]triazolo[4,3-a]pyridin-6-yl)oxy)-1,2,3,4-tetrahydronaphthalen-1-yl)ureido)-N-(2-(3-methoxyazetidin-1-yl)-2-methylpropyl)pyrimidine-2-carboxamide] are 1 to 5 nM and 1 to 10 nM.
As to `CCC(CC)c1nnc2ccc(O[C@@H]3CC[C@H](NC(=O)Nc4cc(C(C)(C)C)nc(C(=O)NCC(C)(C)N5CCN(C)CC5)n4)c4ccccc43)cn12` [Example 173, 4-(tert-butyl)-N-(2-methyl-2-(4-methylpiperazin-1-yl)propyl)-6-(3-((1S,4R)-4-((3-(pentan-3-yl)-[1,2,4]triazolo[4,3-a]pyridin-6-yl)oxy)-1,2,3,4-tetrahydronaphthalen-1-yl)ureido)pyrimidine-2-carboxamide formate salt], the IC50 was 1 to 5 nM in experiment [1] and less than 1 nM on p38 alpha.
For `CCC(CC)c1nnc2ccc(O[C@@H]3CC[C@H](NC(=O)Nc4cc(C(C)(C)C)nc(C(=O)NCC(C)(C)N5CC(OC)C5)n4)c4ccccc43)cn12` [Example 174, 4-(tert-butyl)-N-(2-(3-methoxyazetidin-1-yl)-2-methylpropyl)-6-(3-((1S,4R)-4-((3-(pentan-3-yl)-[1,2,4]triazolo[4,3-a]pyridin-6-yl)oxy)-1,2,3,4-tetrahydronaphthalen-1-yl)ureido)pyrimidine-2-carboxamide formate salt], in that order: 1 to 5 nM and less than 1 nM.
`CCC(CC)c1nnc2ccc(O[C@@H]3CC[C@H](NC(=O)Nc4cc(C(C)(C)C)nc(C(=O)NCC(C)(C)N(C)C)n4)c4ccccc43)cn12` [Example 175, 4-(tert-butyl)-N-(2-(dimethylamino)-2-methylpropyl)-6-(3-((1S,4R)-4-((3-(pentan-3-yl)-[1,2,4]triazolo[4,3-a]pyridin-6-yl)oxy)-1,2,3,4-tetrahydronaphthalen-1-yl)ureido)pyrimidine-2-carboxamide formate salt]: the figures for the IC50 (in experiment [1]; at p38 alpha) were 1 to 5 nM and less than 1 nM, respectively.
In the case of `CCC(CC)c1nnc2ccc(O[C@@H]3CC[C@H](NC(=O)Nc4cc(C(C)(C)C)nc(C(=O)NCC(C)(C)N(C)CC)n4)c4ccccc43)cn12` [Example 176, 4-(tert-butyl)-N-(2-(ethyl(methyl)amino)-2-methylpropyl)-6-(3-((1S,4R)-4-((3-(pentan-3-yl)-[1,2,4]triazolo[4,3-a]pyridin-6-yl)oxy)-1,2,3,4-tetrahydronaphthalen-1-yl)ureido)pyrimidine-2-carboxamide], the IC50 in experiment [1] is 1 to 5 nM; at p38 alpha, less than 1 nM.
Regarding `COCCN(C)C(C)(C)CNC(=O)c1nc(NC(=O)N[C@H]2CC[C@@H](Oc3ccc4nnc(C(C)(C)COC)n4c3)c3ccccc32)cc(C(C)(C)C)n1` [Example 178, 4-(tert-butyl)-6-(3-((1S,4R)-4-((3-(1-methoxy-2-methylpropan-2-yl)-[1,2,4]triazolo[4,3-a]pyridin-6-yl)oxy)-1,2,3,4-tetrahydronaphthalen-1-yl)ureido)-N-(2-((2-methoxyethyl)(methyl)-amino)-2-methylpropyl)pyrimidine-2-carboxamide], the IC50 in experiment [1] fell in the range of 1 to 5 nM; at p38 alpha, 1 to 10 nM.
With `CN(CCO)CCNC(=O)c1nc(NC(=O)N[C@H]2CC[C@@H](Oc3ccc4nnc(C5(C)CCCC5)n4c3)c3ccccc32)cc(C(C)(C)C)n1` [Example 181, 4-(tert-butyl)-N-(2-((2-hydroxyethyl)(methyl)amino)ethyl)-6-(3-((1S,4R)-4-((3-(1-methylcyclopentyl)-[1,2,4]triazolo[4,3-a]pyridin-6-yl)oxy)-1,2,3,4-tetrahydronaphthalen-1-yl)ureido)pyrimidine-2-carboxamide], the IC50 in experiment [1] is 1 to 5 nM; at p38 alpha it was less than 1 nM.
For `CC(C)(C)c1cc(NC(=O)N[C@H]2CC[C@@H](Oc3ccc4nnc(C5(C)CCCC5)n4c3)c3ccccc32)nc(C(=O)NCCN2CCCOCC2)n1` [Example 182, N-(2-(1,4-oxazepan-4-yl)ethyl)-4-(tert-butyl)-6-(3-((1S,4R)-4-((3-(1-methylcyclopentyl)-[1,2,4]triazolo[4,3-a]pyridin-6-yl)oxy)-1,2,3,4-tetrahydronaphthalen-1-yl)ureido)pyrimidine-2-carboxamide], in that order: less than 1 nM and less than 1 nM.
Consider `CN(C)C(C)(C)CNC(=O)c1nc(NC(=O)N[C@H]2CC[C@@H](Oc3ccc4nnc(C5(C)CCCC5)n4c3)c3ccccc32)cc(C(C)(C)C)n1` [Example 183, 4-(tert-butyl)-N-(2-(dimethylamino)-2-methylpropyl)-6-(3-((1S,4R)-4-((3-(1-methylcyclopentyl)-[1,2,4]triazolo[4,3-a]pyridin-6-yl)oxy)-1,2,3,4-tetrahydronaphthalen-1-yl)ureido)pyrimidine-2-carboxamide], for which the IC50 was 1 to 5 nM in experiment [1] and less than 1 nM on p38 alpha.
For `CC(C)(C)c1cc(NC(=O)N[C@H]2CC[C@@H](Oc3ccc4nnc(C5(C)CCCC5)n4c3)c3ccccc32)nc(C(=O)NCCCN2CCOCC2)n1` [Example 184, 4-(tert-Butyl)-6-(3-((1S,4R)-4-((3-(1-methylcyclopentyl)-[1,2,4]triazolo[4,3-a]pyridin-6-yl)oxy)-1,2,3,4-tetrahydronaphthalen-1-yl)ureido)-N-(3-morpholinopropyl)-pyrimidine-2-carboxamide formate salt], in that order: less than 1 nM and less than 1 nM.
For `CN(C)CCNC(=O)c1cc(NC(=O)N[C@H]2CC[C@@H](Oc3ccc4nnc(C(C)(C)C)n4c3)c3ccccc32)cc(C(C)(C)C)n1` [Example 186, 6-(tert-butyl)-4-(3-((1S,4R)-4-((3-(tert-butyl)-[1,2,4]triazolo[4,3-a]pyridin-6-yl)oxy)-1,2,3,4-tetrahydronaphthalen-1-yl)ureido)-N-(2-(dimethylamino)ethyl)-picolinamide], in that order: less than 1 nM and less than 1 nM.
